# Test results reported in ChEMBL document CHEMBL1201862, “PubChem BioAssay data set” (2004).
#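 Briefly, cells in 96-well plates were exposed to five compound concentrations for 48 h, and endpoints were estimated by linear interpolation. The concentration for 50% growth inhibition is given as GI50.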 Calls of active or inactive are those of the source. No stated cut-off is given here; in the data, active = GI50 up to about 1.1 µM and inactive = higher.
# Key:
# Assay in all cases: DTP human tumour cell line panel, 48 h
# [1] = tested on: SK-MEL-2
# [2] = tested on: SK-MEL-28
# [3] = tested on: U-251
# [4] = tested on: SNB-19
# [5] = tested on: OVCAR-5
# [6] = tested on: SF-295
# [7] = tested on: M14
# [8] = tested on: NCI-H522
# [9] = tested on: EKVX
# [10] = tested on: SW-620
# [11] = tested on: CCRF-CEM
# [12] = tested on: NCI-H460
# [13] = tested on: MOLT-4
# [14] = tested on: UACC-257
# [15] = tested on: OVCAR-8
# [16] = tested on: NCI-H23
# [17] = tested on: LOX IMVI
# [18] = tested on: NCI/ADR-RES
# [19] = tested on: K562
# [20] = tested on: HCT-116
Structure (SMILES),GI50 [1],GI50 [2],GI50 [3],GI50 [4],GI50 [5],GI50 [6],GI50 [7],GI50 [8],GI50 [9],GI50 [10],GI50 [11],GI50 [12],GI50 [13],GI50 [14],GI50 [15],GI50 [16],GI50 [17],GI50 [18],GI50 [19],GI50 [20]
O=C(O)/C=C/C(=O)N1C/C(=C\c2ccccc2)C(=O)/C(=C/c2ccccc2)C1,12.6 µM (inactive),6.49 µM (inactive),1.87 µM (inactive),11.3 µM (inactive),17.9 µM (inactive),5.01 µM (inactive),3.4 µM (inactive),1.9 µM (inactive),23.5 µM (inactive),2.32 µM (inactive),2.36 µM (inactive),14.1 µM (inactive),2.81 µM (inactive),7.18 µM (inactive),2.7 µM (inactive),9.71 µM (inactive),3.13 µM (inactive),8.65 µM (inactive),2.37 µM (inactive),1.82 µM (inactive)
O=C(Sc1c(-c2ccccc2)c(=O)n(-c2ccccc2)c(=S)n1-c1ccccc1)c1cccs1,53 µM (inactive),> 100 µM (inactive),84.1 µM (inactive),> 100 µM (inactive),> 100 µM (inactive),61 µM (inactive),53.6 µM (inactive),29.2 µM (inactive),> 100 µM (inactive),24.6 µM (inactive),11.8 µM (inactive),> 100 µM (inactive),18.7 µM (inactive),60.3 µM (inactive),73.3 µM (inactive),> 100 µM (inactive),11.4 µM (inactive),50.8 µM (inactive),25.1 µM (inactive),56.2 µM (inactive)
CC[C@]1(Cc2ccc(OC)c(OC)c2)[C@@H]2C[C@@H](C3OCCO3)ON2O[C@H](OC2CCCC2(c2ccccc2)c2ccccc2)[C@@H]1OC(C)=O (stereo not given in full),15.7 µM (inactive),20.5 µM (inactive),33.2 µM (inactive),18.1 µM (inactive),17.9 µM (inactive),21.2 µM (inactive),16.2 µM (inactive),15.1 µM (inactive),21.1 µM (inactive),33 µM (inactive),18.7 µM (inactive),16.1 µM (inactive),10.1 µM (inactive),19.6 µM (inactive),24.9 µM (inactive),21 µM (inactive),23.3 µM (inactive),28.9 µM (inactive),17.7 µM (inactive),17.4 µM (inactive)
CC(C)[Si](OC/C(=C/COC(C)(C)C)[C@H]1CC=C(C(=O)c2ccccc2N2CN(C)C(=O)N(C)C2)C1)(C(C)C)C(C)C,13.6 µM (inactive),6.22 µM (inactive),10.1 µM (inactive),12.1 µM (inactive),14.2 µM (inactive),12.9 µM (inactive),12.2 µM (inactive),7.41 µM (inactive),15.9 µM (inactive),3.17 µM (inactive),3.1 µM (inactive),12.6 µM (inactive),0.366 µM (active),6.28 µM (inactive),5.55 µM (inactive),15.2 µM (inactive),2.07 µM (inactive),16.4 µM (inactive),1.08 µM (active),2.3 µM (inactive)
O=C(O)CC1NC(/C(=C/c2ccccc2O)NC(=O)c2ccccc2)OC1=O (stereo not given),47.2 µM (inactive),> 100 µM (inactive),24.7 µM (inactive),17.8 µM (inactive),> 100 µM (inactive),26.6 µM (inactive),> 78 µM (inactive),33 µM (inactive),> 33.7 µM (inactive),> 100 µM (inactive),> 100 µM (inactive),> 58.7 µM (inactive),> 100 µM (inactive),> 58.5 µM (inactive),27.3 µM (inactive),26.1 µM (inactive),50.9 µM (inactive),19.5 µM (inactive),> 100 µM (inactive),45.9 µM (inactive)
O=Cc1cn(CCCCCCCCCCCCn2cc(C=O)c3ccccc32)c2ccccc12,> 100 µM (inactive),> 100 µM (inactive),> 100 µM (inactive),> 100 µM (inactive),99.1 µM (inactive),3.56 µM (inactive),> 100 µM (inactive),38.3 µM (inactive),7.53 µM (inactive),> 100 µM (inactive),> 10 µM (inactive),> 10 µM (inactive),> 100 µM (inactive),2.47 µM (inactive),> 100 µM (inactive),3.53 µM (inactive),> 100 µM (inactive),1.46 µM (inactive),0.615 µM (active),2.25 µM (inactive)
